Like-named read-outs stand apart in the source and are kept apart here. Values belong to the compound of their own block, whether it stands above or below them.
Columns and labels:
bacteria = test: Killing tests, bacterial strains in general; format: cell-based; conditions: preliminary experiments, without NCT
Experimental: Microbicidal activity. […] The impact of ammonium chloride on the microbicidal activity of NCT could be confirmed in several bacterial strains (FIG. 4).
Bacterial strains, Staphylococcus aureus ATCC 25923 and 6538, Staphylococcus epidermidis ATCC 12228, Escherichia coli ATCC 11229, Proteus mirabilis ATCC 14153, Pseudomonas aeruginosa ATCC 27853, and a clinical isolate of […] deep-frozen for storage were grown overnight on tryptic soy agar (Merck, Darmstadt, Germany). Colonies from this agar were grown in tryptic soy broth (Merck, Darmstadt, Germany) at 37° C. overnight and washed twice with saline.
Killing tests. Bacteria were diluted in buffered test solution to concentrations of 1×10^6 to 5×10^7 CFU/mL. Immediately and subsequent to different incubation times at room temperature, aliquots were removed, and NCT with or without ammonium chloride or plain monochloramine was inactivated by 10-fold dilution in 0.3% sodium thiosulfate. Aliquots (50 μL) of these solutions as well as of 100-fold further dilutions in saline were spread onto tryptic soy agar plates with an automatic spiral plater (Don Whitley Scientific Limited, West Yorkshire, UK) in duplicates allowing a detection limit of 200 CFU/mL. Plates were grown at 37° C., and CFU were counted after 24 and 48 hours. Controls without NCT were treated the same way.

[1] = Stability of active chlorine compound with ammonium salt in water (pH, oxidation capacity); format: physicochemical
[2] = Example 5: penetration through the human cornea (diffusion chamber); conditions: room temperature
Experimental: A human cornea was clamped in a specially designed chamber. The upper compartment was filled with the disinfectant, while the lower one contained the buffer solution. The system was equilibrated for 2, 4, and 6 hours at room temperature, and afterwards the oxidation capacity was determined in the buffer solution of the lower compartment.

[3] = rabbit eye (Nagl et al.); cited from earlier work
[4] = human eye (Nagl et al.); cited from earlier work
[5] = Example 2: stability of a pure monochloramine solution (UV spectrum); format: physicochemical; conditions: three days storage in the refrigerator at 0-3° C.
Experimental: A solution of 1 g each of N-chlorotaurine and ammonium chloride in 100 mL water was distilled in a rotavapor (water stream vacuum, water bath temperature 50° C.). The distillate contained, according to the UV spectrum, […] pure monochloramine (NH2Cl, absorption band at λmax=244 nm, A244=0.9812, d=0.1 cm, ε244=461.6 L mol^−1 cm^−1). After three days storage in the refrigerator at 0-3° C., the band at 244 disappeared, while two bands at 203 nm (A=1.146) and 294 nm (A0 0.148) appeared which are characteristic for the chromophor —NCl2. Gottardi et al., supra.

[6] = with ammonium, 0.1 M phosphate buffer
[7] = with excess ammonium, no buffer

Compound: Cl.N [Ammonium chloride]
Influence on viability (bacteria): no influence on viability

Compound: [Ca+2].[O-]Cl.[O-]Cl [Calcium hypochlorite]
Behaviour with ammonium compared with chloramine-T [1]: behave in the same manner

Compound: O=S(=O)(O)CCNCl [NCT, N-chlorotaurine]
Diffused oxidation capacity, from the starting value in the upper compartment ([2]; after 2 hours): 1.3% | Diffused oxidation capacity, from the starting value in the upper compartment ([2]; after 4 hours): 4.8% | Diffused oxidation capacity, from the starting value in the upper compartment ([2]; after 6 hours): 25.4% | Tolerability [3]: good tolerability | Tolerability [4]: good tolerability

Loss of oxidation capacity within 1 hour [1, 6]: 90% | pH within 2 hours [1, 6]: 6.3 | pH, start [1, 6]: 7.0 | pH within 8 minutes [1, 7]: 2.9 | pH, start [1, 7]: 6.8
Compound: Cc1ccc(S(=O)(=O)NCl)cc1.[Na] [chloramine-T, N-chloro-4-toluenesulfonamide sodium]

Compound: NCl [monochloramine]
Conversion of NH2Cl to NHCl2 [5]: complete conversion of NH2Cl to NHCl2

Compound: O=c1nc([O-])n(Cl)c(=O)n1Cl.[Na+] [sodium dichloro-isocyanurate]
Behaviour with ammonium compared with chloramine-T [1]: behave in the same manner

— patent US20080269338A1, “AQUEOUS SOLUTIONS CONTAINING CHLORAMINE WHICH ARE FREE FROM DI-AND TRICHLOROAMINE, AS WELL AS FROM AMMONIA” (priority 2007, published 2008)
